Results: patent US20240140962A1, “5,6-DIHYDROTHIENO[3,4-H]QUINAZOLINE COMPOUND” (MEDSHINE DISCOVERY INC., priority 2021, published 2024)
Read-outs that look alike come from different tables or passages of the source.

Tests used:
PLK4 = PLK4 (Homo sapiens (Human), UniProt O00444); experiment: PLK4 kinase activity in vitro, 33P isotope-labeled kinase activity test; assay type: biochemical; conditions: 33P-ATP 10 μM, PLK4 150 nM
Method: (§1) The ^33P isotope-labeled kinase activity test (Reaction Biology Corp) was used to determine the IC50 value to evaluate the inhibitory ability of the test compound to the human PLK family protein kinase PLK2/PLK3/PLK4.
(§2) Buffer conditions: 20 mM HEPES (pH 7.5), 10 mM MgC2, 1 mM EGTA, 0.01% Brij35, 0.02 mg/ml BSA, 0.1 mM Na3VO4, 2 mM DTT, 1% DMSO.
(§3) Test steps: At room temperature, the compounds to be tested were dissolved in DMSO to prepare a 10 mM solution for use. The substrate Casein was dissolved in the freshly prepared buffer (with a final concentration of 20 μM), and the tested PLK2/PLK3/PLK4 kinases (with a final concentration of 15/10/150 nM, respectively) were added thereto and mixed well. The acoustic wave pipetting system Echo 550 was used to add the mother solution of the test compound dissolved in DMSO to the above mixed reaction mixture according to the set final concentration gradient (the highest final concentration was 1 μM, 3-fold dilution, 10 gradients). After incubation at room temperature for 20 minutes, ^33P-ATP (with a final concentration of 30/50/10 μM, respectively) was added, then after incubation at room temperature for 120 minutes, the reaction mixture was spotted on P81 ion exchange filter paper (Whatman #3698-915).

HCT116 cells = experiment: HCT116 cytological activity in vitro (3D CellTiter-Glo proliferation); assay type: cell-based, human; conditions: Homo sapiens, HCT-116, 120 h, 5 days culture, ultra-low adsorption plates
Method: McCoy's 5A medium, penicillin/streptomycin antibiotics was purchased from Vicente, and fetal bovine serum was purchased from Biosera. 3D CellTiter-Glo (cell viability chemiluminescence assay reagent) reagent was purchased from Promega. HCT116 cell line was purchased from Nanjing Cobioer Biosciences Co., Ltd. Envision multimode microplate reader (PerkinElmer).
HCT116 cells were seeded in ultra-low adsorption 96-well U-plates, 80 μL of cell suspension per well, which contained 1000 HCT116 cells. Cell plates were cultured overnight in a carbon dioxide incubator.
The compound to be tested was 5-fold diluted to the 9th concentration with a pipette, that is, diluted from 2 mM to 5.12 nM, and a double-well experiment was set up. 78 μL of medium was added to the intermediate plate, and then 2 μL of each well of the gradient diluted compound was transferred to the intermediate plate according to the corresponding position, 20 μL of each well was transferred to the cell plate after mixing well. Compound concentrations transferred to cell plates ranged from 10 μM to 0.0256 nM. Cell plates were cultured in a carbon dioxide incubator for 5 days. Another cell plate was prepared, and the signal value was read as the maximum value (Max value in the following equation) on the day of drug addition to participate in data analysis.
Every 100 μL of cell viability chemiluminescent detection reagent was added to the cell plate, and incubated at room temperature for 10 minutes to stabilize the luminescent signal. A multimode microplate reader was used to read.
The equation (Sample−Min)/(Max−Min)*100% was used to convert the original data into an inhibition rate, and the value of IC50 can be obtained by curve fitting with four parameters (“log(inhibitor) vs. response in GraphPad Prism—Variable slope” mode). Table 3 provides the inhibitory activity of the compounds of the present disclosure against the proliferation of HCT116 cells.

[1] = tested on: human colon cancer HCT116 cells subcutaneous xenograft tumor; experiment: In vivo pharmacodynamic study, subcutaneous xenograft tumor model of human colon cancer HCT116 cells; parameters: species or system BALB/c Nude mouse; conditions: tumor volume on day 22 after dosing
Method: In this experiment, human colon cancer HCT116 cells were subcutaneously transplanted into BALB/c Nude mouse model to evaluate the antitumor effect of the test compound in vivo.
HCT116 cell culture: 10% fetal calf serum was added to McCoy's 5A medium and cultured in 37° C. 5% CO2 cell incubator. When the cell saturation reached 80% to 90% and the number reached the requirement, cells were collected, counted and inoculated subcutaneously into BALB/c Nude mice (female, 6 to 7 weeks old)
When the tumors grew to a certain size, the animals with tumor volumes that were too large, too small, or with irregular tumor shapes were eliminated, and animals with tumor volumes ranging from 103.12 to 174.35 mm^3 were selected. According to the tumor volume, the animals were divided into 6 groups by random block method, and each group was composed of 6 mice wherein the average volume of the tumor was about 147.12 mm^3 , and the experimental grouping and dosing regimen were shown in Table 5 below. The health status and death of the animals were monitored every day. Routine inspections included observation of tumor growth and the effects of drug treatment on the daily behavior of the animals, such as behavioral activities, food and water intake, body weight changes (measured twice a week), tumor size (tumor volume was measured twice a week), appearance signs or other abnormal conditions.
The formula for calculating tumor volume (TV) was: ½×a×b^2, where a and b were the measured length and width of the tumor, respectively. The formula for calculating the tumor inhibition rate TGI (%) was: TGI (%)=[1−(average tumor volume at the end of administration of a certain treatment group−average tumor volume at the beginning of administration of this treatment group)/(average tumor volume at the end of treatment of the solvent control group−average tumor volume at the beginning of treatment in solvent control group)]×100%.
In this study, the experimental data were expressed as Mean±SEM. Statistical analysis was based on the data of RTV at the end of the experiment using IBM SPSS Statistics software. The comparison between two groups was analyzed by T test, and the comparison between three or more groups was analyzed by one-way ANOVA. If the variances were homogeneous (the F value had no significant difference), the Tukey's method was used for analysis. If the variances were not homogeneous (the F value had significant differences), and the Games-Howell method was used for testing. p<0.05 was considered as a significant difference.

[2] = Pharmacokinetic study in CD-1 male mice by oral administration and intravenous injection; assay type: in vivo; conditions: mouse, plasma; for AUC(0-t): read-out: Area under the plasma concentration-time curve AUC0-24 h
From the text: The purpose of this experiment is to study the pharmacokinetics of the test compound in the plasma of CD-1 male mice after intravenous injection and oral administration.
Intravenous injection group: an appropriate amount of the test compound was weighed and dissolved in 20% SBE-b-CD aqueous solution and the pH was adjusted to 4 to 5 with 6 M hydrochloric acid, and the mixture was vortexed for 2, minutes to obtain a clear solution, and then pH was adjusted around 7 with 5 N sodium hydroxide, and the mixture was vortexed for 1 minute to prepare a 1.5 mg/mL clear solution, which was filtered through a 0.22 μm microporous membrane for later use. CD-1 male mice from 6 to 10 weeks old were selected and given a solution of the test compound intravenously. Samples were collected at 0.083, 0.25, 0.5, 1, 2, 4, 6, 8, and 24 hours.
Oral administration group: an appropriate amount of the test compound was weighed and dissolved in 20% SBE-b-CD aqueous solution, and the pH was adjusted to 3 to 4 with 6 M hydrochloric acid, and the mixture was vortexed for 2, minutes to obtain a clear solution, and then pH was adjusted around 7 with 5 N sodium hydroxide, and mixture was vortexed for 1 minute to prepare a 2.0 mg/mL clear solution for later use. CD-1 male mice between 6 and 10 weeks of age were selected and given the test compounds orally. Samples were collected at 0.25, 0.5, 1, 2, 4, 6, 8, 10, and 24 hours.
Approximately 50 μL of whole blood was collected through the jugular vein at each time point for plasma preparation for concentration determination by high performance liquid chromatography-tandem mass spectrometry (LC-MS/MS). All animals were euthanized under CO2 anesthesia after collecting the PK samples at the last time point. The plasma concentration was processed using the non-compartmental model of WinNonlin™ Version 6.3 (Pharsight, Mountain View, CA) pharmacokinetic software, and the pharmacokinetic parameters were calculated using the linear logarithmic trapezoidal method, and the experimental results are shown in Table 4.

PLK3 = PLK3 (Homo sapiens (Human), UniProt Q9H4B4); experiment: PLK3 kinase activity in vitro, 33P isotope-labeled kinase activity test; assay type: biochemical; conditions: 33P-ATP 50 μM, PLK3 10 nM
Sequence of PLK3 (Q9H4B4 whole entry): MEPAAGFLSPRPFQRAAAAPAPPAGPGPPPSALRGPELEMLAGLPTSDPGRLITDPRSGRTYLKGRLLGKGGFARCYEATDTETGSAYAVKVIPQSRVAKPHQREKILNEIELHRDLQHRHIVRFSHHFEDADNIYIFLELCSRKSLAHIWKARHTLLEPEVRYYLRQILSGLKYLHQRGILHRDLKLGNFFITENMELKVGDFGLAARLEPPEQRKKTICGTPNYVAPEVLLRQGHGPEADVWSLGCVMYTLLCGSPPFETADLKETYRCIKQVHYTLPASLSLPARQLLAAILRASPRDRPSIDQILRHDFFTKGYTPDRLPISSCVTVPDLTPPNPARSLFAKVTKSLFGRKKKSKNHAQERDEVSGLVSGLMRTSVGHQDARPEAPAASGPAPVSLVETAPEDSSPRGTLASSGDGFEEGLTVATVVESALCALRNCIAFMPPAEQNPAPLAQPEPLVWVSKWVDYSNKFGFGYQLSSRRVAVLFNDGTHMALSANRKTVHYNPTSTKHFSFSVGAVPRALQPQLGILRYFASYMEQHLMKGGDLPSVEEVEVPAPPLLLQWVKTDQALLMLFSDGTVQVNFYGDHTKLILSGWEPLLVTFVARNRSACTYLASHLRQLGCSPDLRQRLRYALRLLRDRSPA
Method: as §1, §2, §3

PLK2 = PLK2 (Homo sapiens (Human), UniProt Q9NYY3); experiment: PLK2 kinase activity in vitro, 33P isotope-labeled kinase activity test; assay type: biochemical; conditions: 33P-ATP 30 μM, PLK2 15 nM
Sequence of PLK2 (Q9NYY3 whole entry): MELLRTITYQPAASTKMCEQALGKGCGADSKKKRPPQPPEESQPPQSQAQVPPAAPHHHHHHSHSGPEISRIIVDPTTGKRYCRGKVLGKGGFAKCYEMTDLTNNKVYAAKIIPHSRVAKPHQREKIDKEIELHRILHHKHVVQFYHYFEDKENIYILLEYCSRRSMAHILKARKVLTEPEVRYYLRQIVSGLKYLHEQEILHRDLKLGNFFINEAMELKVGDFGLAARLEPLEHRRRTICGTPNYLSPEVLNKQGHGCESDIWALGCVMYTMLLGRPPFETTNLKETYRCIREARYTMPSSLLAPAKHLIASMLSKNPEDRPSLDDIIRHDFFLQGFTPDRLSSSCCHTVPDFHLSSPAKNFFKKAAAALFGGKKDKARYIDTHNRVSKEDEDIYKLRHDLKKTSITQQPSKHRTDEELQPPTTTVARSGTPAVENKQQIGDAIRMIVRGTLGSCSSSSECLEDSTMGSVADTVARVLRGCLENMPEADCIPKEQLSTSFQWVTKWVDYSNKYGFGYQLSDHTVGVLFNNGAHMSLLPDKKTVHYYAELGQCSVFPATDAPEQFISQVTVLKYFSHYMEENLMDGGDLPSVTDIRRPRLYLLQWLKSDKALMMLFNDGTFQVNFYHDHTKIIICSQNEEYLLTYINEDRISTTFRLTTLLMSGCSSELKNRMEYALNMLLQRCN
Method: as §1, §2, §3

Sequence of PLK4 (O00444 whole entry): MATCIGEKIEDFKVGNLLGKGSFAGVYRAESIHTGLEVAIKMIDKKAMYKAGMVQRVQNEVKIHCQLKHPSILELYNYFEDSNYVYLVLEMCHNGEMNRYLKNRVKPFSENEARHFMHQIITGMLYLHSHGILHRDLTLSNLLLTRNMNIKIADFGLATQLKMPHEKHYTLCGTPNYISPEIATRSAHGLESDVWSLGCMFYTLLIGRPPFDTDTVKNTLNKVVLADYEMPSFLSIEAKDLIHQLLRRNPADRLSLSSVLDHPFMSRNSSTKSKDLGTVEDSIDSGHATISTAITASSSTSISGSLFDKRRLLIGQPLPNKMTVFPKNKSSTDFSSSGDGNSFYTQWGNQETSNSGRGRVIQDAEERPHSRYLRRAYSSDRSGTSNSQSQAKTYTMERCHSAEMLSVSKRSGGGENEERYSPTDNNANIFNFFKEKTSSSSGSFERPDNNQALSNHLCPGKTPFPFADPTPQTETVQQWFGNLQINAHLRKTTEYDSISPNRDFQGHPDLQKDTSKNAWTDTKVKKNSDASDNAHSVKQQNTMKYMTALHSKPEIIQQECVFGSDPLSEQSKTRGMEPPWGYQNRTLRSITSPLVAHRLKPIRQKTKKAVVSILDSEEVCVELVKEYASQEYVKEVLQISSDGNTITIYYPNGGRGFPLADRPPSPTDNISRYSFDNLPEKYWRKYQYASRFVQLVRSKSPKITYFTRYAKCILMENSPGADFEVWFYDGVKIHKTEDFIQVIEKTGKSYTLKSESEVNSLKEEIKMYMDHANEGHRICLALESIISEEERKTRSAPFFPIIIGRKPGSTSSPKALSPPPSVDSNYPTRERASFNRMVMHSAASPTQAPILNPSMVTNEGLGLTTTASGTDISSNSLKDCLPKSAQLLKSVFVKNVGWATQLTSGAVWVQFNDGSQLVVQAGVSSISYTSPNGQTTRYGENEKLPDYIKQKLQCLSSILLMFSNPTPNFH

Compound `CSc1sc(C(N)=O)c2c1-c1nc(Nc3cc(N4CCN(C)CC4)ccc3OC(F)(F)F)ncc1CC2` [Compound 1] has an IC50 (PLK4) of over 10 µM, an IC50 (HCT116 cells) of 0.027 µM and a TGI ([1]; 30 mg/kg PO QD (5 days on, 2 days off)) of 72.9%. It also gave a TGI ([1]; 45 mg/kg PO QD (5 days on, 2 days off)) of 87.3%, a Vd ([2]; IV, 0.5 mg/kg, read-out: Apparent volume of distribution Vdss) of 3.37 L/kg and an AUC(0-t) ([2]; IV, 0.5 mg/kg) of 0.41 µM·h. For the same compound, the clearance ([2]; IV, 0.5 mg/kg, read-out: Clearance CL) was 37.8 mL/min/kg, the half-life ([2]; IV, 0.5 mg/kg, read-out: Half-life T½ (converted)) was 1.47 h and the AUC(0-t) ([2]; PO, 2.0 mg/kg) was 1.05 µM·h. The Cmax ([2]; PO, 2.0 mg/kg, read-out: Peak concentration Cmax) was 386 nM, the Tmax ([2]; PO, 2.0 mg/kg, read-out: Peak time Tmax) was 0.75 h and the bioavailability ([2]; PO 2.0 mg/kg vs IV 0.5 mg/kg, read-out: Bioavailability F) was 66.4%. The IC50 (PLK3) was over 10 µM and the IC50 (PLK2) was over 10 µM.
